Source: ChEMBL document CHEMBL1147562, “Synthesis of potent and highly selective nonguanidine azetidinone inhibitors of human tryptase” (Bioorg Med Chem Lett, 2004)

How the values were obtained:
Tryptase = Tryptase (Homo sapiens, UniProt Q9BZJ3+Q15661+Q9NRR2); assay: Inhibitory activity of compound against human tryptase was determined; assay type: protein assay
Coagulation factor X = Coagulation factor X (Homo sapiens, UniProt P00742); assay: Inhibitory activity of compound against Coagulation factor X was determined
Chain of Coagulation factor X (P00742 41-179 limits assumed): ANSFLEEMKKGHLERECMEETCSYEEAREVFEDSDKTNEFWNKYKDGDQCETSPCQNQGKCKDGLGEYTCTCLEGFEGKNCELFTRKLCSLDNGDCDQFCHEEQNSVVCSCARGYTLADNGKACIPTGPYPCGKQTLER
Chain of Coagulation factor X (P00742 235-488 limits assumed): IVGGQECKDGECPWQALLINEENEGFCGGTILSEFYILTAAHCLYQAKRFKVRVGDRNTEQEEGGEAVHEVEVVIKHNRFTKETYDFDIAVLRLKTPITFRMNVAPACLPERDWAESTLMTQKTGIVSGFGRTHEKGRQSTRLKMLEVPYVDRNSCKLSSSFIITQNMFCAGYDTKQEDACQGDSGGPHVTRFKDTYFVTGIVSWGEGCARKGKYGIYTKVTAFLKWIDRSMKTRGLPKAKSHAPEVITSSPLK

Plasminogen = Plasminogen (Rattus norvegicus, UniProt Q01177); assay: Inhibitory activity of compound against Plasmin was determined
Chain of Plasminogen (Q01177 97-581 limits assumed): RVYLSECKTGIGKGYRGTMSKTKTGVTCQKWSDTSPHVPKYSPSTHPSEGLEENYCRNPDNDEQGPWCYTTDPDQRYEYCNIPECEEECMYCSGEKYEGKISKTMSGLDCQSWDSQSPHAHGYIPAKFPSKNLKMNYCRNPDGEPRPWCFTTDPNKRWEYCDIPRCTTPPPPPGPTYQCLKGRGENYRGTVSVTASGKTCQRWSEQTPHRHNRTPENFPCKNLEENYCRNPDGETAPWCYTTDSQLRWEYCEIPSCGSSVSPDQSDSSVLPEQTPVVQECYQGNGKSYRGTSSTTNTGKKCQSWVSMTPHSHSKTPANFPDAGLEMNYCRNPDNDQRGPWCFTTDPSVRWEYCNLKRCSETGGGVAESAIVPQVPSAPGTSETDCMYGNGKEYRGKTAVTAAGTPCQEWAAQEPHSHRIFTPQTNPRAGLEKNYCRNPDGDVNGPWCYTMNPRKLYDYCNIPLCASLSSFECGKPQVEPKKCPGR
Chain of Plasminogen (Q01177 582-812 limits assumed): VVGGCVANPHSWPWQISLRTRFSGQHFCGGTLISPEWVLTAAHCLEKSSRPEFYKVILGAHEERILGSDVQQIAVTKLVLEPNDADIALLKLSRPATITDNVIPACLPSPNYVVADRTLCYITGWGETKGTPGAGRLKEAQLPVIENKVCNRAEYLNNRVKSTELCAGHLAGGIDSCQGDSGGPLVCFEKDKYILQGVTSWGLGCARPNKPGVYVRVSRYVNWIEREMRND

Serine protease 1 = Serine protease 1 (Homo sapiens, UniProt P07477); assay: Inhibitory activity of compound against Trypsin was determined
Chain of Serine protease 1 (P07477 whole entry): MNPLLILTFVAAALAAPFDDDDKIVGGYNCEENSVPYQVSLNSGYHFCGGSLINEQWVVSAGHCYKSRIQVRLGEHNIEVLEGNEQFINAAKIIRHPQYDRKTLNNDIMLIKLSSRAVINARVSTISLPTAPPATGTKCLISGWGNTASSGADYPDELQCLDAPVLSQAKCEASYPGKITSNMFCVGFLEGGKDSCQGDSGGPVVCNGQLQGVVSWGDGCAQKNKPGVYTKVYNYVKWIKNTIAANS

[1] = target: Urokinase-type plasminogen activator (Homo sapiens, UniProt P00749); assay: Inhibitory activity of compound against Urokinase-type plasminogen activator was determined
Prothrombin = Prothrombin (Homo sapiens, UniProt P00734); assay: Inhibitory activity of compound against Thrombin was determined
[2] = target: Tissue-type plasminogen activator (Homo sapiens, UniProt P00750); assay: Inhibitory activity of compound against tissue type plasminogen activator was determined
Chain of Tissue-type plasminogen activator (P00750 whole entry): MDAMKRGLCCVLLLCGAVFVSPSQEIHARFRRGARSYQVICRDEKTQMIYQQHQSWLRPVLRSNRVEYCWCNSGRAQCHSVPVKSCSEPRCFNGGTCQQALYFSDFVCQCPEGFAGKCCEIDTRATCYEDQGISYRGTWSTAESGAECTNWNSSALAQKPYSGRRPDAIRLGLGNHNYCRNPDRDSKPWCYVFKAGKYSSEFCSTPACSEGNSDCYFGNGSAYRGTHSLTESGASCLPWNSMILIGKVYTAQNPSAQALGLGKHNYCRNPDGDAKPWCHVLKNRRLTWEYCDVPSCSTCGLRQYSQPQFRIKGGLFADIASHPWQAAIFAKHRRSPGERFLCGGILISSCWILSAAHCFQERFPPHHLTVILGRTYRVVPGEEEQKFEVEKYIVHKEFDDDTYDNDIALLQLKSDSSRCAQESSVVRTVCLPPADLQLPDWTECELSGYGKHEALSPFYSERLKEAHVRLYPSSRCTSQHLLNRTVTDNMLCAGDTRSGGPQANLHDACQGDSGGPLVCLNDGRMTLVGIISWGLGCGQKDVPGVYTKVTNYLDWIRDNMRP

[3] = Half-life of compound was determined at pH 7; assay type: ADME
[4] = Half-life of compound was determined at pH 9; assay type: ADME

IC50 (Tryptase) | Structure (SMILES) | further results
> 33 µM | CC(C)C(OC(=O)N1CCN(C(=O)N2C(=O)[C@H](CCCN)[C@H]2C(=O)O)CC1)C(C)C | 
1.214 µM | CC(C)C(OC(=O)N1CCN(C(=O)N2C(=O)[C@H](CCC3CCNCC3)[C@H]2C(=O)O)CC1)C(C)C | 
0.032 µM | CC(C)C(OC(=O)N1CCN(C(=O)N2C(=O)[C@H](CCCCCCN)[C@H]2C(=O)O)CC1)C(C)C | 
0.039 µM | CC(C)C(OC(=O)N1CCN(C(=O)N2C(=O)[C@H](CCCCN=C(N)N)[C@H]2C(=O)O)CC1)C(C)C (single isomer, unassigned) | 
0.034 µM | CC(C)C(OC(=O)N1CCN(C(=O)N2C(=O)[C@H](CCCCCN)[C@H]2C(=O)O)CC1)C(C)C | 
2.605 µM | CC(C)C(OC(=O)N1CCN(C(=O)N2C(=O)[C@H](CC3CCNC3)[C@H]2C(=O)O)CC1)C(C)C (stereo not given in full) | 
0.007 µM | CC(C)C(OC(=O)N1CCN(C(=O)N2C(=O)[C@H](CCCCN)[C@H]2C(=O)O)CC1)C(C)C | 

More lines, now with the values behind:

Structure (SMILES) | IC50 (Tryptase) | further results
CC(C)C(OC(=O)N1CCN(C(=O)N2C(=O)[C@H](Cc3ccc(CN)cc3)[C@H]2C(=O)O)CC1)C(C)C | 0.211 µM | 
CC(C)C(OC(=O)N1CCN(C(=O)N2C(=O)[C@H](Cc3ccnc(N)c3)[C@H]2C(=O)O)CC1)C(C)C | 0.061 µM | 
CC(C)C(OC(=O)N1CCN(C(=O)N2C(=O)[C@H](CC3CCNCC3)[C@H]2C(=O)O)CC1)C(C)C | 0.029 µM | IC50 (Coagulation factor X): > 33 µM; IC50 (Plasminogen): 6.22 µM; IC50 (Serine protease 1): 0.935 µM; IC50 [1]: 7 µM; IC50 (Prothrombin): > 33 µM; IC50 [2]: > 33 µM
Nc1ccccn1 [2-AMINOPYRIDINE] |  | pKa (physchem): 7
CC(C)C(OC(=O)N1CCN(C(=O)N2C(=O)[C@H](CC3CCCNC3)[C@H]2C(=O)O)CC1)C(C)C (stereo not given in full) | 17.899 µM | 
O=C(O)[C@@H]1[C@@H](CCC2CCCNC2)C(=O)N1C(=O)N1CCN(C(=O)CCCCCc2ccccc2)CC1 (stereo not given in full) | 0.0018 µM | IC50 (Coagulation factor X): > 33 µM; IC50 (Plasminogen): 0.309 µM; IC50 (Serine protease 1): 10 µM; IC50 [1]: > 33 µM; IC50 (Prothrombin): > 33 µM; IC50 [2]: > 33 µM
N=C(N)N1CCC(C[C@H]2C(=O)N(C(=O)Nc3ccccc3)[C@@H]2C(=O)O)CC1 | 0.515 µM | 
NCCCC[C@H]1C(=O)N(C(=O)N2CCN(C(=O)CCCCCc3ccccc3)CC2)[C@@H]1C(=O)O | < 0.0017 µM | 
O=C(O)[C@@H]1[C@@H](CC2CCNCC2)C(=O)N1C(=O)N1CCN(C(=O)CCCCCc2ccccc2)CC1 | 0.001 µM | half-life [3]: > 48 h; half-life [4]: 35 h
N=C(N)N1CCC[C@H](C[C@H]2C(=O)N(C(=O)N3CCN(C(=O)CCCCCc4ccccc4)CC3)[C@@H]2C(=O)O)C1 | < 0.0017 µM | 
CC(C)C(OC(=O)N1CCN(C(=O)N2C(=O)[C@H](Cc3cccc(CN)c3)[C@H]2C(=O)O)CC1)C(C)C | 0.019 µM | 
O=C(O)[C@@H]1[C@@H](CC2CCNCC2)C(=O)N1C(=O)Nc1ccccc1 | 0.147 µM | 
CC(C)C(OC(=O)N1CCN(C(=O)N2C(=O)[C@H](Cc3ccc(N)nc3)[C@H]2C(=O)O)CC1)C(C)C | 1.053 µM | 
N=C(N)N1CCC[C@@H](C[C@H]2C(=O)N(C(=O)N3CCN(C(=O)CCCCCc4ccccc4)CC3)[C@@H]2C(=O)O)C1 | < 0.0017 µM | 
